Entries after “also recorded” stand apart in the source; their conditions may differ.
How the values were obtained:
dopamine D2 receptor = tested on: dopamine D2 receptor; design: method as in PMID 38619283; conditions: cited from earlier work
[1] = molecular target: serotonin 5-HT2A receptor; design: method as in PMID 38619283; conditions: cited from earlier work
mice [2] = experiment: Forced swim test (FST); assay type: in vivo; conditions: 7.5 mg/kg i.p., 60 min before test
Description: (§1) The investigated compound (SER2AAK2) was bought from Enamine (purity over 95%) and in all tests was administered intraperitoneally (i.p.), spread in a drop of Tween 80, and diluted with an aqueous solution of 0.5% methylcellulose (tylose) and injected 60 min before the tests in a volume of 10 mL/kg. Control groups received tylose injections of the same volume and via the same route of administration.
The study was carried out using the test proposed by R. Porsolt. The method is based on the observation of an animal forced to swim in a confined space from which there is no escape. After an initial period of vigorous attempts to get out, the animal finally gives up on escaping. The test consists of immersing the mouse individually in a cylindrical beaker (diameter 10 cm, height 25 cm) filled with water (at a temperature of 23–25 °C) at a height of 10 cm for 6 min. The immobility time was measured during the final 4 min of the test (between 2 and 6 min).

5-HT1A receptor = molecular target: 5-HT1A receptor; design: method as in PMID 38619283; conditions: cited from earlier work
CYP2D6 = CYP2D6 (Homo sapiens, UniProt P10635); experiment: CYP2D6 luminescent assay (Glo kit)
Description: The inhibitory potential of the compound against the CYP2D6 isoform was evaluated employing a methodology analogous to the CYP3A4 assay, albeit with a different set of reference compounds.
The effect of SERAAK2 on the activity of the cytochrome P450 isoforms CYP3A4 and CYP2D6 was tested using commercial luminescence assays (Glo kits bought from Promega, Medison, WI, USA). The experiment was performed twice with triplicate samples, following the manufacturer’s guidelines and established procedures.

mice [3] = experiment: Elevated plus maze (EPM) test; assay type: in vivo
Description: as §1
Anxiety behaviors were measured using the EPM test according to the Lister method. The apparatus consisted of four black-painted arms arranged in a plus-shaped configuration with a central platform (5 × 5 cm). Two opposing arms were open (30 × 5 cm), while the other two were enclosed (30 × 5 × 15 cm). The maze was elevated 38.5 cm above the floor and illuminated with dim, diffuse red light. Experiments were conducted in a quiet, dark room. […] The following parameters were recorded: time spent in the open arms, number of entries into the open arms, and total number of entries into both types of arms.

5-HT7 receptor = molecular target: 5-HT7 receptor; design: method as in PMID 38619283; conditions: cited from earlier work
mice [4] = experiment: Passive avoidance (PA) task, memory consolidation; assay type: in vivo; conditions: 7.5 mg/kg, retention phase, vs vehicle control
Description: as §1
The passive avoidance (PA) task measures a long-term memory, as it was reported by Venault et al.. The PA apparatus consists of a two-compartment acrylic box, one illuminated with fluorescent light (8 W) (10 cm × 13 cm × 15 cm) and another darkened (25 cm × 20 cm × 15 cm), connected by a guillotine door. Entrance of the animal to the darkened box was punished by an electric foot shock (0.15 mA for 2 s). The PA procedure was previously described. In particular, on the first day of the experiment [i.e., training (pre-test)], mice were placed individually into the illuminated compartment and allowed to explore this box. […] The latency time for entering the darkened compartment was recorded (TL1). […] The results were expressed as the latency index (LI), calculated by the following formula: TL1−TL2/TL1 where TL1 is the time needed to move to the dark compartment during a training session and TL2 is the time needed to re-enter the dark compartment, measured 24 h after TL1 (retention).

mice [5] = experiment: Amphetamine-induced hyperactivity; assay type: in vivo; conditions: 7.5 mg/kg i.p. 60 min before test, amphetamine 3 mg/kg 30 min later
Description: as §1
Locomotor activity of the mice was assessed using the Opto-Varimex-4 Auto-Track system (Columbus Instruments, OH, USA). Each mouse was placed individually in a testing cage for 25 min—5 min for acclimatization, followed by 20 min of activity recording. (6a) The total distance traveled (in centimeters) was measured. Cages were cleaned with 10% ethanol between sessions.

Chain of CYP2D6 (P10635 whole entry, canonical isoform): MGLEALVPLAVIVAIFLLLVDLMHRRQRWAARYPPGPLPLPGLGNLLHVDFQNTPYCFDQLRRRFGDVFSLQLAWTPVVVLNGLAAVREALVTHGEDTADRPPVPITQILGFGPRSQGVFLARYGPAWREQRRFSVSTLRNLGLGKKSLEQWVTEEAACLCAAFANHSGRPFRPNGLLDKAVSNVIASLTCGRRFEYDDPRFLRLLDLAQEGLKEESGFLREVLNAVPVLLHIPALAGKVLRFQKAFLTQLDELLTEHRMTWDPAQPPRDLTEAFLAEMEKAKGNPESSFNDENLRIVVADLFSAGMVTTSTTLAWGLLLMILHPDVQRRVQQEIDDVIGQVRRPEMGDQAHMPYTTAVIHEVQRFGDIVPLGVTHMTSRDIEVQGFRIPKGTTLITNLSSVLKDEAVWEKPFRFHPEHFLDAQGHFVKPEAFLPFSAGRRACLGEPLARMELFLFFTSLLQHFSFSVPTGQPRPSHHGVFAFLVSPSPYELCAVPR

In the case of `OC(CNCCc1c[nH]c2ccccc12)COc1ccc(Oc2ccccc2)cc1` (stereo not shown) [SERAAK2], the “percent of inhibition at 10 μM, dopamine D2 receptor” value (dopamine D2 receptor) is given as 23 ± 6%, the Ki [1] is given as 422 ± 74 nM and the FST immobility time (mice [2]) is given as “significant decrease in immobility time; also recorded: ↓ immobility (7.5 mg/kg) antidepressant-like effect connected with serotonergic modulation”. The Ki (5-HT1A receptor) was 153 ± 0.4 nM, the IC50 (CYP2D6) was 1000 nM and the inhibition at 10 µM (CYP2D6; human) was 90 ± 1%. For the same compound, the “Elevated plus maze (EPM), open arm time and entries” value (mice [3]; 7.5 mg/kg) was “↑ open arm time and entries (7.5 mg/kg)—anxiolytic effect”, the “EPM total number of entries into both open and closed arms” value (mice [3]; 7.5 mg/kg i.p.) was “remained unchanged” and the “EPM percentage of open arm entries” value (mice [3]; 7.5 mg/kg i.p., p < 0.01 vs control) was “significant increase”. For the same compound, the “EPM percentage of time spent in the open arms” value (mice [3]; 7.5 mg/kg i.p., p < 0.05 vs control) was “significant increase”, the Ki (5-HT7 receptor) was 914 ± 25 nM and the “PA memory consolidation, latency index” value (mice [4]) was “did not significantly change the latency index; also recorded: no effect on memory consolidation”. The amphetamine-induced hyperactivity (mice [5]) was “did not significantly modify this hyperactivity; also recorded: no effect”.

— PMC12693327, “SERAAK2 as a Serotonin Receptor Ligand: Structural and Pharmacological In Vitro and In Vivo Evaluation” (Molecules, 2025)
